According to patent US5929038A, “Pharmaceutical preparations which inhibit hepatitis B virus (HBV) replication” (Choongwae Pharmaceutical Co., Ltd., priority 1992, dated 1999):
“And” between values parts separate entries of the source, which are not always exact repeats. Identical values can stand only once.

Experiments:
HBV DNA replication = assay: Effects on HBV DNA replication in 2.2.15 cells in culture (intracellular HBV DNA and HBV virion DNA); format: cell-based, hepatitis B virus; settings: ddC 25 μM
[1] = tested on: central and peripheral nervous system; settings: in vivo; cited from earlier work
hematopoietic cells = settings: cited from earlier work
[2] = 24 hrs following the 9th day of treatment

Nc1ccn([C@H]2CC[C@@H](CO)O2)c(=O)n1 [ddC, 2',3'-dideoxycytidine, reference compound]
Intracellular HBV DNA, Mono. (HBV DNA replication; [2]): 1.1 pg/μg cell DNA and 1.2 pg/μg cell DNA and 0.8 pg/μg cell DNA and 1.0 pg/μg cell DNA
Intracellular HBV DNA, RI (Replicating Intermediate) (HBV DNA replication; [2]): 1 pg/μg cell DNA
HBV Virion DNA, Day 0 (HBV DNA replication; Day 0, before first dose): 65 pg/ml culture medium and 70 pg/ml culture medium and 78 pg/ml culture medium and 60 pg/ml culture medium
HBV Virion DNA, Day 3 (HBV DNA replication; Day 3): 41 pg/ml culture medium and 33 pg/ml culture medium and 31 pg/ml culture medium and 40 pg/ml culture medium
HBV Virion DNA, Day 6 (HBV DNA replication; Day 6): 15 pg/ml culture medium and 13 pg/ml culture medium and 10 pg/ml culture medium and 12 pg/ml culture medium
toxicity on the central and peripheral nervous system [1]: high toxicity on the central and peripheral nervous system
toxicity on hematopoietic cells (hematopoietic cells): toxicity on hematopoietic cells
